Tests used:
Assay type in all cases: in vivo
[1] = tested on: Lolium rigidum (LOLRI); assay: Herbicidal pre-emergence action, 1280 g/ha (Table A5); settings: visual grading after ca. 3 weeks vs untreated controls
How it was run: (§1)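 Compounds were formulated as WP or EC and sprayed onto the covering soil of freshly sown pots (sandy loam) in 600 L water/ha with 0.5% additive. Pots were kept in a greenhouse, and damage was scored visually after ca. 3 weeks as % effect versus untreated controls (100% = dead).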

[2] = tested on: Poa annua (POAAN); assay: Herbicidal pre-emergence action, 1280 g/ha (Table A7); settings: visual grading after ca. 3 weeks vs untreated controls
How it was run: as §1

[3] = tested on: Stellaria media (STEME); assay: Herbicidal pre-emergence action, 1280 g/ha (Table A9); settings: visual grading after ca. 3 weeks vs untreated controls
How it was run: as §1

[4] = tested on: Amaranthus retroflexus (AMARE); assay: Herbicidal pre-emergence action, 1280 g/ha (Table A11); settings: visual grading after ca. 3 weeks vs untreated controls
How it was run: as §1

[5] = tested on: Abutilon theophrasti (ABUTH); assay: Herbicidal post-emergence action, 1280 g/ha (Table B1); settings: visual assessment after ca. 3 weeks vs untreated controls
How it was run: (§2)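 Weeds grown in sandy loam under controlled conditions were sprayed post-emergence at the single-leaf stage, 2 to 3 weeks after sowing, with WP or EC formulations plus 0.5% additive at 600 L water/ha. Visual % damage versus untreated controls was scored after ca. 3 weeks in the greenhouse.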

[6] = tested on: Kochia scoparia (KCHSC); assay: Herbicidal post-emergence action, 1280 g/ha (Table B4); settings: visual assessment after ca. 3 weeks vs untreated controls
How it was run: as §2

[7] = tested on: Lolium rigidum (LOLRI); assay: Herbicidal post-emergence action, 1280 g/ha (Table B5); settings: visual assessment after ca. 3 weeks vs untreated controls
How it was run: as §2

[8] = tested on: Matricaria inodora (MATIN); assay: Herbicidal post-emergence action, 1280 g/ha (Table B6); settings: visual assessment after ca. 3 weeks vs untreated controls
How it was run: as §2

[9] = tested on: Stellaria media (STEME); assay: Herbicidal post-emergence action, 1280 g/ha (Table B9); settings: visual assessment after ca. 3 weeks vs untreated controls
How it was run: as §2

[10] = tested on: Veronica persica (VERPE); assay: Herbicidal post-emergence action, 1280 g/ha, VERPE; settings: visual grading vs untreated controls
How it was run: (§3)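 Pot-grown weeds in sandy loam sprayed post-emergence at the single-leaf stage, 2–3 weeks after sowing, with WP or EC formulations plus 0.5% additive in 600 L water/ha at 1280 g/ha. After ca. 3 weeks in the greenhouse, damage scored visually as % effect versus untreated controls (100% = plants dead).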

[11] = tested on: Amaranthus retroflexus (AMARE); assay: Herbicidal post-emergence action, 1280 g/ha, AMARE; settings: visual grading vs untreated controls
How it was run: as §3

[12] = tested on: Amaranthus retroflexus (AMARE); assay: Herbicidal pre-emergence action, 320 g/ha, AMARE; settings: visual grading after ca. 3 weeks
Excerpt: (§4) Seeds of mono- and dicotyledonous weed plants were sown in plastic pots (double sowings with one species of mono- and one species of dicotyledonous weed plants per pot), in sandy loam, and covered with soil. The compounds according to the invention, formulated in the form of wettable powders (WP) or as emulsifiable concentrates (EC), were applied to the surface of the covering soil as an aqueous suspension or as an emulsion, with the addition of 0.5% of an additive, at an application rate of 600 litres of water per hectare (converted). Following treatment, the pots were placed in a greenhouse and kept under optimum growth conditions for the test plants. The visual grading of the damage to the test plants was carried out after ca. 3 weeks in comparison to untreated controls (herbicidal effect in percent (%): 100% effect=plants have died, 0% effect=as control plants).
Tables C1 to C6 below, show the effects of selected compounds of the general formula (I) according to Table 1 on various harmful plants using an application rate corresponding to 320 g/ha obtained by the experimental procedure mentioned above.

[13] = tested on: Kochia scoparia (KCHSC); assay: Herbicidal post-emergence action, 320 g/ha, KCHSC; settings: visual grading after ca. 3 weeks
How it was run: (§5)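 Weeds grown in sandy loam were sprayed post-emergence at the single-leaf stage, 2–3 weeks after sowing. Compounds were formulated as WP or EC with 0.5% additive and applied at 320 g/ha in 600 L water/ha. After ~3 weeks in the greenhouse, damage was scored visually as % versus untreated controls (100% = dead).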

[14] = tested on: Stellaria media (STEME); assay: Herbicidal post-emergence action, 320 g/ha, STEME; settings: visual grading after ca. 3 weeks
How it was run: as §5

[15] = tested on: Veronica persica (VERPE); assay: Herbicidal post-emergence action, 320 g/ha, VERPE; settings: visual grading after ca. 3 weeks
Excerpt: (§6) Seeds of mono- and dicotyledonous weed plants were sown in plastic pots (double sowings with one species of mono- and one species of dicotyledonous weed plants per pot), in sandy loam, covered with soil and grown under controlled growth conditions. 2 to 3 weeks after sowing, the test plants were sprayed in the single-leaf stage. The compounds according to the invention, formulated in the form of wettable powders (WP) or as emulsifiable concentrates (EC), were sprayed onto the green plant parts as an aqueous suspension or as an emulsion, with the addition of 0.5% of an additive, at an application rate of 600 litres of water per hectare (converted). The test plants were placed in the greenhouse for ca. 3 weeks under optimum growth conditions, and then the effect of the preparations was assessed visually in comparison with untreated controls (herbicidal effect in percent (%): 100% effect=plants have died, 0% effect=as control plants).
(§7) Tables D1 to D8 below, show the effects of selected compounds of the general formula (I) according to Table 1 on various harmful plants using an application rate corresponding to 320 g/ha obtained by the experimental procedure mentioned above.

[16] = tested on: Amaranthus retroflexus (AMARE); assay: Herbicidal post-emergence action, 320 g/ha, AMARE; settings: visual grading after ca. 3 weeks
How it was run: as §5

[17] = tested on: Abutilon theophrasti (ABUTH); assay: Herbicidal pre-emergence action, 1280 g/ha (Table A1); settings: visual grading after ca. 3 weeks vs untreated controls
How it was run: as §1

[18] = tested on: Matricaria inodora (MATIN); assay: Herbicidal pre-emergence action, 1280 g/ha (Table A6); settings: visual grading after ca. 3 weeks vs untreated controls
How it was run: as §1

[19] = tested on: Setaria viridis (SETVI); assay: Herbicidal pre-emergence action, 1280 g/ha (Table A8); settings: visual grading after ca. 3 weeks vs untreated controls
Excerpt: as §4, with “plants). Tables A1 to A11 below, show the effects of selected compounds of the general formula (I) according to Table 1 on various harmful plants and an application rate corresponding to 1280 g/ha obtained by the experimental procedure mentioned above.” for “plants).”

[20] = tested on: Stellaria media (STEME); assay: Herbicidal pre-emergence action, 320 g/ha, STEME; settings: visual grading after ca. 3 weeks
How it was run: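 Weed seeds sown in sandy loam pots; WP or EC formulations applied pre-emergence to the covering soil surface at 320 g/ha with 0.5% additive in 600 L water/ha. Greenhouse growth; visual damage scored after ca. 3 weeks versus untreated controls (100% = plants died, 0% = as control).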

[21] = tested on: Matricaria inodora (MATIN); assay: Herbicidal post-emergence action, 320 g/ha, MATIN; settings: visual grading after ca. 3 weeks
How it was run: as §5

[22] = tested on: Setaria viridis (SETVI); assay: Herbicidal post-emergence action, 1280 g/ha (Table B8); settings: visual assessment after ca. 3 weeks vs untreated controls
Excerpt: as §6, with “plants). Tables B1 to B11 below, show the effects of selected compounds of the general formula (I) according to Table 1 on various harmful plants using an application rate corresponding to 1280 g/ha obtained by the experimental procedure mentioned above.” for “plants).”

[23] = tested on: Lolium rigidum (LOLRI); assay: Herbicidal pre-emergence action, 320 g/ha (Table C2); settings: visual grading after ca. 3 weeks vs untreated controls
How it was run: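 Applied pre-emergence to the surface of soil covering weed seeds sown in sandy loam, as WP or EC formulations in water with 0.5% additive at 600 L/ha. Greenhouse-grown; damage graded visually at ca. 3 weeks as percent of untreated controls (100% = plants died).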

[24] = tested on: Abutilon theophrasti (ABUTH); assay: Herbicidal post-emergence action, 320 g/ha, ABUTH; settings: visual grading after ca. 3 weeks
How it was run: as §5

[25] = tested on: Lolium rigidum (LOLRI); assay: Herbicidal post-emergence action, 320 g/ha, LOLRI; settings: visual grading after ca. 3 weeks
Excerpt: as §6, §7

Row | SMILES | herbicidal effect LOLRI [1] [%] | herbicidal effect POAAN [2] [%] | herbicidal effect STEME [3] [%] | herbicidal effect AMARE [4] [%] | herbicidal effect ABUTH [5] [%] | herbicidal effect KCHSC [6] [%] | herbicidal effect LOLRI [7] [%] | herbicidal effect MATIN [8] [%] | herbicidal effect STEME [9] [%] | herbicidal effect VERPE [10] [%] | herbicidal effect AMARE [11] [%] | herbicidal effect AMARE [12] [%] | herbicidal effect KCHSC [13] [%] | herbicidal effect STEME [14] [%] | herbicidal effect AMARE [16] [%] | herbicidal effect ABUTH [17] [%] | herbicidal effect MATIN [18] [%] | herbicidal effect SETVI [19] [%] | herbicidal effect STEME [20] [%] | herbicidal effect LOLRI [23] [%] | further results
1 | Cc1nn(C)c(=O)c(Oc2ccccc2Cl)c1O [Example I-003] | 100 | 90 | 100 | 90 | 90 | 100 | 90 | 100 | 100 | 100 | 100 | 90 | 90 | 90 | 90 |  |  |  |  |  | herbicidal effect VERPE [15]: 100%
2 | Cc1nn(C)c(=O)c(Oc2ccccc2C2CC2)c1O [Example I-014] | 100 | 90 | 100 | 100 |  | 100 | 90 | 90 | 100 | 90 | 90 | 90 | 100 | 100 | 90 | 90 | 100 | 90 | 100 |  | herbicidal effect MATIN [21]: 90%
3 | Cc1nn(C)c(=O)c(Oc2cc(Cl)ccc2Br)c1OC(=O)C(C)C [Example I-092] | 100 |  | 100 | 100 |  |  | 90 | 90 | 100 |  | 90 | 90 |  | 90 |  | 90 | 100 | 90 | 90 | 100 | herbicidal effect SETVI [22]: 90%
4 | Cc1nn(C)c(=O)c(Oc2ccc(F)cc2C2CC2)c1O [Example I-033] | 100 |  | 90 | 90 | 90 | 90 |  | 90 | 90 | 90 | 100 | 90 |  |  | 90 |  |  |  |  | 100 | herbicidal effect ABUTH [24]: 90%
5 | CCOC(=O)Oc1c(C)nn(C)c(=O)c1Oc1cc(F)ccc1C1CC1 [Example I-045] | 100 |  | 100 | 100 | 100 | 90 | 100 | 100 | 100 | 100 | 100 |  | 90 | 90 | 90 | 90 | 90 | 90 | 90 | 90 | herbicidal effect SETVI [22]: 90%; herbicidal effect ABUTH [24]: 100%; herbicidal effect LOLRI [25]: 100%; herbicidal effect MATIN [21]: 90%; herbicidal effect VERPE [15]: 100%
6 | Cc1nn(C)c(=O)c(Oc2cc(Cl)ccc2Cl)c1OC(=O)C(C)C [Example I-095] | 100 |  | 100 | 100 |  |  | 90 | 90 | 90 |  | 90 | 90 |  | 90 |  |  | 90 |  | 90 | 90 | herbicidal effect LOLRI [25]: 90%

— patent US20240239755A1, “SUBSTITUTED PYRIDAZINONES, SALTS OR N-OXIDES THEREOF AND THEIR USE AS HERBICIDALLY ACTIVE SUBSTANCES” (Bayer Aktiengesellschaft, priority 2021, published 2024)
